Experiment [1] concerns the target Glucagon-like peptide 1 receptor (Homo sapiens, UniProt P43220). The experiment in a line: Agonist activity at human GLP-1R expressed in HEK293 cells assessed as stimulation of cAMP accumulation incubated for 20 mins. The experiment is classed as functional, cell-based.
Experiment [2] has as its target T1, Gastrin/cholecystokinin type B receptor (Homo sapiens, UniProt P32239).
T1 sequence (P32239 whole entry): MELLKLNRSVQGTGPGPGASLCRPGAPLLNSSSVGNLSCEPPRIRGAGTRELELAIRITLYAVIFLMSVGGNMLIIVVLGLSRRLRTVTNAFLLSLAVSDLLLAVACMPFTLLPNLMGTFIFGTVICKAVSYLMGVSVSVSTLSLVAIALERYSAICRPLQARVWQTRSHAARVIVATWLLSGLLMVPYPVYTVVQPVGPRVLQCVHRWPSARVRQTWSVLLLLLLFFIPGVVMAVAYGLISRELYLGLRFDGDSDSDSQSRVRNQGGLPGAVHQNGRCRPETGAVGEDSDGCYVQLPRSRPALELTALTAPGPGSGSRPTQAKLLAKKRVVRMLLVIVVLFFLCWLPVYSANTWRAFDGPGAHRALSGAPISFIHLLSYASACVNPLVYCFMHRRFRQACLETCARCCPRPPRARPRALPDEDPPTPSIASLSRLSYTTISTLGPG
Briefly: Agonist activity at human CCK-2R expressed in HEK293 cells assessed as stimulation of ERK phosphorylation incubated for 5 mins. In kind it is cell-based.

The target in experiment [3] is T2, Cholecystokinin receptor type A (Homo sapiens, UniProt P32238).
T2 sequence (P32238 whole entry): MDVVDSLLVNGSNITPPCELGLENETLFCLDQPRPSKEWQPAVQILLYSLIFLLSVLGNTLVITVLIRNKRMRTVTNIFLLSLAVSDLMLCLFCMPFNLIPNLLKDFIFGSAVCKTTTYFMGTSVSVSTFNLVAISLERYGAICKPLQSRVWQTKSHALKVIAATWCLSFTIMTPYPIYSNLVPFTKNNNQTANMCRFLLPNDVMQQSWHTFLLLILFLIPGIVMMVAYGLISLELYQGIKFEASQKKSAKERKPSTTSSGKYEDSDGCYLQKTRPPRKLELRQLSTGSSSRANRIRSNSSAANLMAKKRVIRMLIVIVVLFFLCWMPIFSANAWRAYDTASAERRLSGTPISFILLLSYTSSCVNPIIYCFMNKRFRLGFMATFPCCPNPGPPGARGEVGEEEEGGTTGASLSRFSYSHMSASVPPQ
Briefly: Agonist activity at human CCK-1R expressed in HEK293 cells assessed as stimulation of ERK phosphorylation incubated for 5 mins. In kind it is cell-based.

The next experiment relates to Mus musculus. Briefly: Hypoglycemic activity in ICR mouse assessed as decrease in blood glucose concentration at 25 nmol/kg, ip dosed 15 mins before test and measured up to 120 mins by OGTT method. The experiment is classed as functional, organism-based.

Active and inactive are the calls of the source. The rule behind the calls is not given here. *1 amine or outer side, *2 acyl side, *3 side chain or, on linkers, in order; H or OH if unused. Where a SMILES comes first, the peptide text is derived from it. Bridges are numbered along the chain shown (N, C = ends). [ ]: non-standard residue; d: D form. X3 = O=C(O)CCCCCCCCCCCCCCCCC(=O)NC(CCC(=O)NCCOCCOCC(=O)NCCCCCCNC(=O)C(CCCCNC(=O)CCN1C(=O)CC([*:1])C1=O)NC(=O)CCN1C(=O)CC([*:2])C1=O)C(=O)O; sY = N[C@@H](Cc1ccc(OS(=O)(=O)O)cc1)C(=O)O; AEEA = NCCOCCOCC(=O)O; Aib = CC(C)(N)C(=O)O Where only a bound is given, the exact number is not on record here.

Glucagon-like peptide 1 receptor, sequence (P43220 whole entry): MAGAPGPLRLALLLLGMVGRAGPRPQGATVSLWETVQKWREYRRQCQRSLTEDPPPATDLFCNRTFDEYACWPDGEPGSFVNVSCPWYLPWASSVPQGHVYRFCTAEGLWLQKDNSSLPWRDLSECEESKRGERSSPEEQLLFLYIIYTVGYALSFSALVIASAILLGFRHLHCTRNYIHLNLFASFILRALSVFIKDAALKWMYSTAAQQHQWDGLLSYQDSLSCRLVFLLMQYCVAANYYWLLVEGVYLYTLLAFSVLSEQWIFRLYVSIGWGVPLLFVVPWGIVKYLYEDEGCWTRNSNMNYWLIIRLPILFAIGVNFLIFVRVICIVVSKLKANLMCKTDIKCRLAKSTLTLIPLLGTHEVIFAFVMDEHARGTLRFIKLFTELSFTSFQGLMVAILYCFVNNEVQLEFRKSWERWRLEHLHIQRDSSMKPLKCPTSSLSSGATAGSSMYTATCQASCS

Regarding `CC[C@H](C)[C@H](NC(=O)[C@H](CC(C)C)NC(=O)[C@H](Cc1c[nH]c2ccccc12)NC(=O)[C@H](CCC(=O)O)NC(=O)[C@@H](NC(=O)[C@H](Cc1ccccc1)NC(=O)[C@@H]1CSC2CC(=O)N(CCC(=O)NC(C(=O)NCCCCCCNC(=O)COCCOCCNC(=O)CCC(NC(=O)CCCCCCCCCCCCCCCCC(=O)O)C(=O)O)CCCCNC(=O)CCN3C(=O)CC(SC[C@H](NC(=O)[C@H](Cc4ccc(O)cc4)NC(=O)[C@H](CCC(=O)O)NC(=O)[C@@H](NC(=O)[C@@H](NC(=O)[C@H](CC(=O)O)NC(=O)[C@H](CC(N)=O)NC(=O)[C@@H](NC(=O)[C@H](Cc4ccc(O)cc4)NC(=O)[C@@H](NC(=O)CNC(=O)[C@H](CCC(=O)O)NC(=O)C(C)(C)NC(=O)[C@@H](N)Cc4c[nH]cn4)[C@@H](C)O)[C@@H](C)O)C(C)C)[C@@H](C)O)C(=O)N[C@@H](CCC(=O)O)C(=O)N[C@@H](CCC(=O)O)C(=O)N[C@@H](CCC(=O)O)C(=O)N[C@@H](C)C(=O)N[C@@H](C)C(=O)N[C@@H](CCCCN)C(=O)N1)C3=O)C2=O)[C@@H](C)CC)C(=O)N[C@@H](CCCCN)C(=O)NCC(=O)N[C@@H](CCCCN)C(=O)NCCOCCOCC(=O)NCCOCCOCC(=O)N[C@@H](Cc1ccc(O)cc1)C(=O)NCC(=O)N[C@@H](Cc1c[nH]c2ccccc12)C(=O)N[C@@H](CC(C)C)C(=O)N[C@@H](CC(=O)O)C(=O)N[C@@H](Cc1ccccc1)C(N)=O` (some centres undefined) (H-H[Aib]EGTYTNDVTEYCEEEAAKCFIEWLIKGK[AEEA][AEEA]YGWLDF-NH2; linker 14-21 via X3), the concentration for a half-maximal effect (EC50) (usually the concentration that produces a half-maximal response) was 0.055 nM in experiment [1], 15.2 nM in experiment [2] and over 1000 nM in experiment [3].
For the compound `CC[C@H](C)[C@@H]1NC(=O)[C@H](CC(C)C)NC(=O)[C@H](Cc2c[nH]c3ccccc23)NC(=O)[C@H](CCC(=O)O)NC(=O)[C@H]([C@@H](C)CC)NC(=O)[C@H](Cc2ccccc2)NC(=O)[C@@H](NC(=O)[C@H](CCCCN)NC(=O)[C@H](C)NC(=O)[C@H](C)NC(=O)[C@H](CCC(=O)O)NC(=O)[C@H](CCC(=O)O)NC(=O)[C@H](CCC(=O)O)NC(=O)[C@H](CC(C)C)NC(=O)[C@H](Cc2ccc(O)cc2)NC(=O)[C@H](CCC(=O)O)NC(=O)[C@@H](NC(=O)[C@@H](NC(=O)[C@H](CC(=O)O)NC(=O)[C@H](CC(N)=O)NC(=O)[C@@H](NC(=O)[C@H](Cc2ccc(O)cc2)NC(=O)[C@@H](NC(=O)CNC(=O)[C@H](CCC(=O)O)NC(=O)C(C)(C)NC(=O)[C@@H](N)Cc2c[nH]cn2)[C@@H](C)O)[C@@H](C)O)C(C)C)[C@@H](C)O)CSC2CC(=O)N(CCC(=O)NCCCCC(C(=O)NCCCCCCNC(=O)COCCOCCNC(=O)CCC(NC(=O)CCCCCCCCCCCCCCCCC(=O)O)C(=O)O)NC(=O)CCN3C(=O)CC(SC[C@@H](C(=O)NCC(=O)N[C@@H](CCCCN)C(=O)NCCOCCOCC(=O)NCCOCCOCC(=O)N[C@@H](Cc4ccc(O)cc4)C(=O)NCC(=O)N[C@@H](Cc4c[nH]c5ccccc45)C(=O)N[C@@H](CC(C)C)C(=O)N[C@@H](CC(=O)O)C(=O)N[C@@H](Cc4ccccc4)C(N)=O)NC1=O)C3=O)C2=O` (some centres undefined) (H-H[Aib]EGTYTNDVTEYLEEEAAKCFIEWLICGK[AEEA][AEEA]YGWLDF-NH2; linker 21-28 via X3), the EC50 was 0.061 nM in experiment [1], 17.5 nM in experiment [2] and over 1000 nM in experiment [3].
Turning to `CC[C@H](C)[C@H](NC(=O)[C@H](CC(C)C)NC(=O)[C@H](Cc1c[nH]c2ccccc12)NC(=O)[C@H](CCC(=O)O)NC(=O)[C@@H](NC(=O)[C@H](Cc1ccccc1)NC(=O)[C@H](CS)NC(=O)[C@H](CCCCN)NC(=O)[C@H](C)NC(=O)[C@H](C)NC(=O)[C@H](CCC(=O)O)NC(=O)[C@H](CCC(=O)O)NC(=O)[C@H](CCC(=O)O)NC(=O)[C@H](CC(C)C)NC(=O)[C@H](Cc1ccc(O)cc1)NC(=O)[C@H](CCC(=O)O)NC(=O)[C@@H](NC(=O)[C@@H](NC(=O)[C@H](CC(=O)O)NC(=O)[C@H](CC(N)=O)NC(=O)[C@@H](NC(=O)[C@H](Cc1ccc(O)cc1)NC(=O)[C@@H](NC(=O)CNC(=O)[C@H](CCC(=O)O)NC(=O)C(C)(C)NC(=O)[C@@H](N)Cc1c[nH]cn1)[C@@H](C)O)[C@@H](C)O)C(C)C)[C@@H](C)O)[C@@H](C)CC)C(=O)N[C@@H](CS)C(=O)NCC(=O)N[C@@H](CCCCN)C(=O)N1CCC[C@H]1C(=O)N[C@@H](CO)C(=O)N[C@@H](CO)C(=O)NCC(=O)N[C@@H](C)C(=O)N1CCC[C@H]1C(=O)N1CCC[C@H]1C(=O)N1CCC[C@H]1C(=O)N[C@@H](CO)C(N)=O` (HELM PEPTIDE1{H.[Aib].E.G.T.Y.T.N.D.V.T.E.Y.L.E.E.E.A.A.K.C.F.I.E.W.L.I.C.G.K.P.S.S.G.A.P.P.P.S.[am]}$$$$V2.0), the EC50 in experiment [1] worked out at 0.052 nM. The result in the experiment with Mus musculus was Active.
Regarding `CC[C@H](C)[C@H](NC(=O)[C@H](CC(C)C)NC(=O)[C@H](Cc1c[nH]c2ccccc12)NC(=O)[C@H](CCC(=O)O)NC(=O)[C@@H](NC(=O)[C@H](Cc1ccccc1)NC(=O)[C@H](CS)NC(=O)[C@H](CCCCN)NC(=O)[C@H](C)NC(=O)[C@H](C)NC(=O)[C@H](CCC(=O)O)NC(=O)[C@H](CCC(=O)O)NC(=O)[C@H](CCC(=O)O)NC(=O)[C@H](CC(C)C)NC(=O)[C@H](Cc1ccc(O)cc1)NC(=O)[C@H](CCC(=O)O)NC(=O)[C@@H](NC(=O)[C@@H](NC(=O)[C@H](CC(=O)O)NC(=O)[C@H](CC(N)=O)NC(=O)[C@@H](NC(=O)[C@H](Cc1ccc(O)cc1)NC(=O)[C@@H](NC(=O)CNC(=O)[C@H](CCC(=O)O)NC(=O)C(C)(C)NC(=O)[C@@H](N)Cc1c[nH]cn1)[C@@H](C)O)[C@@H](C)O)C(C)C)[C@@H](C)O)[C@@H](C)CC)C(=O)N[C@@H](CS)C(=O)NCC(=O)N[C@@H](CCCCN)C(N)=O` (HELM PEPTIDE1{H.[Aib].E.G.T.Y.T.N.D.V.T.E.Y.L.E.E.E.A.A.K.C.F.I.E.W.L.I.C.G.K.[am]}$$$$V2.0), the EC50 in experiment [1] stood at 0.083 nM. In the experiment with Mus musculus, the outcome was Active.
Consider H-HGEGTYTNDVTEYLEEEAAKEFIEWLIKGK-NH2, for which the EC50 in experiment [1] came out at 0.048 nM. For the same compound, in the experiment with Mus musculus, the outcome was Active.
Regarding “H-HGEGTYTNDVTEYLEEEAAKEFIEWLIKGKPSSGAPPPS-NH2”, the EC50 in experiment [1] was 0.034 nM; in experiment [2], over 1000 nM; in experiment [3], over 1000 nM. For the same compound, the result in the experiment on Mus musculus was Active.
In the case of “H-HGEGTYTNDVTEYLEEEAAKEFIEWLIKGKPSSGAPPSKKKKKK-NH2”, the EC50 in experiment [1] worked out at 0.024 nM. The outcome in the experiment on Mus musculus was Active.
As to “H-H[Aib]EGTYTNDVTEYCEEEAAKCFIEWLIKGKPSSGAPPPS[AEEA][AEEA]YGWLDF-NH2 (cysteines drawn unpaired)”, the EC50 is 0.04 nM in experiment [1], 8.3 nM in experiment [2] and over 1000 nM in experiment [3].
In the case of “H-H[Aib]EGTYTNDVTEYCEEEAAKCFIEWLIKGKPSSGAPPPS[AEEA][AEEA][sY]GWMDF-NH2 (cysteines drawn unpaired)”, the EC50 in experiment [1] is 0.038 nM; in experiment [2], 7.6 nM; in experiment [3] it was over 1000 nM.
Take “H-H[Aib]EGTYTNDVTEYCEEEAAKCFIEWLIKGKPSSGAPPSKKKKKK-NH2 (cysteines drawn unpaired)”: the EC50 in experiment [1] was 0.028 nM. Further, the outcome in the experiment on Mus musculus was Active.
On to “H-H[Aib]EGTYTNDVTEYLEEEAAKCFIEWLICGKPSSGAPPPS[AEEA][AEEA]YGWLDF-NH2 (cysteines drawn unpaired)”, for which the EC50 in experiment [1] is 0.048 nM; in experiment [2], 9.4 nM; in experiment [3], over 1000 nM.
In the case of “H-H[Aib]EGTYTNDVTEYLEEEAAKCFIEWLICGKPSSGAPPPS[AEEA][AEEA][sY]GWMDF-NH2 (cysteines drawn unpaired)”, the EC50 was 0.059 nM in experiment [1], 8.2 nM in experiment [2] and over 1000 nM in experiment [3].
As for “H-H[Aib]EGTYTNDVTEYLEEEAAKCFIEWLICGKPSSGAPPSKKKKKK-NH2 (cysteines drawn unpaired)”, in experiment [1], the EC50 is 0.036 nM. Further, the result in the experiment with Mus musculus was Active.

The values above are taken from ChEMBL document CHEMBL4699602, “Stapled and Xenopus Glucagon-Like Peptide 1 (GLP-1)-Based Dual GLP-1/Gastrin Receptor Agonists with Improved Metabolic Benefits in Rodent Models of Obesity and Diabetes” (J Med Chem, 2020).
